The record followed here is patent publication US6214859A, “Ethylamine derivatives” (Fujimoto Brothers Co., Ltd., priority 1997, dated 2001).

Counter-ions that a name gives are not always drawn.

The nature of data set [1]: Toxicity screening using primary cultured hepatocyte (LDH release). The data set is classed as cell-based, rat. As to conditions: rat, primary hepatocytes, 24 hr, control 0.5% saline or 0.5% DMSO, read-out: Percent control of LDH release. As to the method: The hepatocytes was prepared from rat liver by collagenase perfusion method and suspension containing 5×10^5 cells/ml were prepared. After cultivation for 24 hr, the suspension was exchanged to the William's Medium E (GIBCO BRL) containing 10 or 100 μM of the compounds of this invention. After cultivation for 24 hr, the activity of lactate dehydrogenase (LDH) released in the medium was measured.

Data set [2] deals with rats reduced learning ability by tetrabenazine. Description: Conditioned avoidance task in the shuttle box (tetrabenazine-treated rats). Type of data set: in vivo, rat. As to conditions: tetrabenazine 1 mg/kg s.c., significance and direction. As to the method:
The method described in Life Sci., 58, 817-827 (1996) was used. The effects on conditioned avoidance reflex (CARs) was analyzed in the shuttle box using male and female rats (weighing 200-220 g) whose leaning abilities were reduced by treatment of tetrabenazine. The instrument was constructed, according to the device described in Psychopharmacologia 10, 1-5 (1966) by the Research Institute for Electrical Industry (Budapest, Hungary). The male and female rats (weighing 200-220 g) were trained to cross the berrier under the influence of a conditioned stimulus (CS) (light flash and buzzer sounds). […] And the performance which was not related to this condition was noted as an intersignal reaction (IR). The rats were trained with 100 trials per day for 5 days. One trial consisted of 15 sec intertrial interval. The saline solution of tetrabenazine was administered at a dose of 1 mg/kg subcutaneously before one hour prior to the test and then the solution of the compounds of this invention were administered at the doses of 1, 2, 2.5 and 5 mg/kg subcutaneously with the simultaneous administration of tetrabenazine. The nmbers of CARs, EFs and IRs were automatically counted and evaluated by multi-way analysis of variance (ANOVA).

The test system of data set [3] is dopamine release, substantia nigra. Description: Release of biogenic amines from brain tissue: dopamine, substantia nigra. The data set is classed as in vivo, Wistar rats. The note with it: 0.01 mg/kg s.c. As to the method:
(§1) The method described in Life Sci., 56, 611-620 (1995) was used. After Wistar rats were decapitated, appropriate brain samples, which were striatun, substantia nigra, tuberculum olfactorium, locus coeruleus and raphe, were removed quickly and soaked in oxygenated (95% O2 and 5% CO2) Krebs solution at 37° C. The composition of Krebs solution was as follows in […]: NaCl 111, KCl 4.7, CaCl2 2.5, MgSO4 1.64, NaHCO3 25, KH2 PO4 1.2, glucose 11, 50 mg/l ascorbic add and 20 mg/l EDTA-2 Na. The preparations, soaked in one organ bath, were as follows: 1) four pieces of striatum (each halved), 2) four pieces of substantia nigra, 3) four pieces of tuberculum olfactorium; 4) eight pieces of locus coeruleus; 5) eight pieces of raphe. After incubation of the appropriate tissue for 20 min, the Krebs solution was replaced, the tissue soaked for 20 min in Krebs solution dissolving the compounds of this invention and the amount of biogenic amine released during this period of time was estimate. The compounds of this invention and PPAP, control compound, were dissolved in saline and were administered subcutaneously before 30 min to removing brain sample. For measuring noradrenaline and dopamine, samples were purified on 60 mg alumina containing micro columns (BDH Chemicals Ltd.) according to the method described in J. Pharmacol. Exp. Ther., 138, 360-372 (1962) For measuring serotonin, samples were purified on 15 mg Sephadex G-10 micro columns (Pharmacia). Dopamine, noradrenaline and serotonin were determined by high performance liquid chromatography (Waters 746 data module) with electrochemical detection (Waters 460 electrochemical detector). Waters Resolve 5μ Spherical C18 3.9×150 mm column was used as separating column and triethylamine-phosphate buffer (pH 5.2), containing 200 mg/l octane sulfonate sodium and 18 mg/l EDTA-2 Na with 6% acetonitrile, was used as mobile phase. The release amount of appropriate amine was noted as nmol/g tissue released for 20 min. deference of means tested by Student's t-test and significant level was set at P<.05.

Data set [4] deals with dopamine release, striatum. Description: Release of biogenic amines from brain tissue: dopamine, striatum. Type of data set: in vivo, Wistar rats. As to conditions: 0.01 mg/kg s.c. Here is the method: as §1
Data set [5] concerns dopamine release, tuberculum olfactorium. Description: Release of biogenic amines from brain tissue: dopamine, tuberculum olfactorium. Type of data set: in vivo, Wistar rats. As to conditions: 0.01 mg/kg s.c. As to the method:
as §1

Data set [6] relates to noradrenaline release, locus coeruleus. Description: Release of biogenic amines from brain tissue: noradrenaline, locus coeruleus. Type of data set: in vivo, Wistar rats. The note with it: 0.01 mg/kg s.c. Here is the method:
as §1

In data set [7] the test system is serotonin release, raphe. The data set can be described thus: Release of biogenic amines from brain tissue: serotonin, raphe. The note with it: 0.01 mg/kg s.c. The data set is classed as in vivo, Wistar rats. Here is the method:
as §1

For `CCCC(Cc1ccc2ccccc2c1)NCC(C)(C)C` (stereo not shown) [Compound No. 14], in data set [1], the activity at 24 h, 10 µM turned out to be 108 ± 4.18% and the activity at 24 h, 100 µM came out at 131 ± 7.08%.
Consider `CCCNC(CCC)Cc1ccc2cc(OC)ccc2c1` (stereo not shown) [Compound No. 15], for which, in data set [2] (5 mg/kg s.c.), the “Condition Avoidance Reflex (CARs)” value was “* .Arrow-up bold”.
Turning to `CCCNC(CCC)Cc1cc2ccccc2[nH]1` (stereo not shown) [Compound No. 19, 1-(Indol-2-yl)-2-propylaminopentane Hydrochloride], in data set [1], the activity at 24 h, 10 µM is 82.4 ± 8.34% and the activity at 24 h, 100 µM came to 180 ± 5.54%.
`CCCCNC(CCC)Cc1ccc2c(c1)OCO2.Cl` (stereo not shown) [Compound No. 29, 1-(1,3-Benzodioxol-5-yl)-2-butylaminopentane Hydrochloride]: the “Condition Avoidance Reflex (CARs)” value in data set [2] (2.5 mg/kg s.c.) is “* .Arrow-up bold”. In data set [2] (5 mg/kg s.c.), the “Condition Avoidance Reflex (CARs)” value was “*** .Arrow-up bold” and the “Intersignal Reactions (IRs)” value is reported as “*** .dwnarw”. In data set [1], the activity at 24 h, 10 µM was 103 ± 6.02% and the activity at 24 h, 100 µM turned out to be 101 ± 2.94%.
As for `CCCC(Cc1ccc2c(c1)OCO2)NC(C)CC` (stereo not shown) [Compound No. 30], in data set [2] (5 mg/kg s.c.), the “Condition Avoidance Reflex (CARs)” value is “**** .Arrow-up bold” and the “Intersignal Reactions (IRs)” value is recorded as “* .dwnarw”. Also, in data set [1], the activity at 24 h, 10 µM is 99.5 ± 5.44% and the activity at 24 h, 100 µM amounted to 138 ± 4.57%.
As to `CCCC(Cc1ccc2c(c1)OCO2)NC(CC)CC` (stereo not shown) [Compound No. 31], in data set [1], the activity at 24 h, 10 µM is 102.5 ± 0.84% and the activity at 24 h, 100 µM is 153 ± 4.35%.
For `CCCC(Cc1ccc2c(c1)OCO2)Nc1ccc(C)cc1.Cl` (stereo not shown) [Compound No. 33, 1-(1,3-Benzodioxol-5-yl)-2-p-toluidinopentane Hydrochloride], in data set [2] (5 mg/kg s.c.), the “Condition Avoidance Reflex (CARs)” value is on record as “* .Arrow-up bold” and the “Intersignal Reactions (IRs)” value is recorded as “* .dwnarw”. In data set [1], the activity at 24 h, 10 µM stood at 94 ± 4.16% and the activity at 24 h, 100 µM amounted to 152 ± 5.71%.
As to `CCCNC(CCC)Cc1ccc2c(c1)OCCO2` (stereo not shown) [Compound No. 35, 1-(1,4-Benzodioxan-6-yl)-2-propylaminopentane Hydrochloride], in data set [1], the activity at 24 h, 10 µM came to 103 ± 10.6% and the activity at 24 h, 100 µM turned out to be 147 ± 5.07%.
The corresponding values for `CCCNC(CCC)Cc1ccc2c(c1)CCO2` (stereo not shown) [Compound No. 36, 1-(2,3-Dihydrobenzofuran-5-yl)-2-propylaminopentane Hydrochloride] are 101 ± 2.24% and 111 ± 6.58%.
As to `CCCNC(CCC)Cc1ccc2c(c1)CCC2.Cl` (stereo not shown) [Compound No. 37, 1-(Indan-5-yl)-2-propylaminopentane Hydrochloride], the “Condition Avoidance Reflex (CARs)” value in data set [2] (5 mg/kg s.c.) is recorded as “* .Arrow-up bold”. Besides, in data set [1], the activity at 24 h, 10 µM was 83.8 ± 5.65% and the activity at 24 h, 100 µM was found to be 193 ± 8.51%.
As for `CCCNC(CCC)Cc1ccc2cc[nH]c2c1.Cl` (stereo not shown) [compound 22, 1-(Indol-6-yl)-2-propylaminopentane Hydrochloride], in data set [3], the “Release of dopamine, substantia nigra” value was 11.9 ± 0.39 nmol/g tissue, for 20 min. For the same compound, the “Release of dopamine, striatum” value in data set [4] is 6.5 ± 0.06 nmol/g tissue, for 20 min. For the same compound, the “Release of dopamine, tuberculum olfactorium” value in data set [5] is reported as 9.7 ± 0.17 nmol/g tissue, for 20 min. The “Release of noradrenaline, locus coeruleus” value (“Release of noradrenaline” below) in data set [6] is on record as 4.8 ± 0.05 nmol/g tissue, for 20 min. Also, the “Release of serotonin, raphe” value in data set [7] is recorded as 0.322 ± 0.01 nmol/g tissue, for 20 min. Moreover, the figures for the “Condition Avoidance Reflex (CARs)” value in data set [2] (0.5 mg/kg s.c.), in data set [2] (1 mg/kg s.c.) and in data set [2] (5 mg/kg s.c.) were “* .Arrow-up bold”, “*** .Arrow-up bold” and “**** .Arrow-up bold”, respectively. Moreover, the “Escape Failures (EFs)” value in data set [2] (5 mg/kg s.c.) is recorded as “* .dwnarw”.
On to `CCCNC(CCC)Cc1cc2ccccc2s1.Cl` (stereo not shown) [compound 38, 1-(2-Benzothienyl)-2-propylaminopentane Hydrochloride], for which, in data set [3], the “Release of dopamine, substantia nigra” value is recorded as 14.0 ± 0.23 nmol/g tissue, for 20 min. In addition, the “Release of dopamine, striatum” value in data set [4] is given as 7.9 ± 0.19 nmol/g tissue, for 20 min. In addition, in data set [5], the “Release of dopamine, tuberculum olfactorium” value is 11.5 ± 0.14 nmol/g tissue, for 20 min. Moreover, the “Release of noradrenaline” value in data set [6] was 3.6 ± 0.05 nmol/g tissue, for 20 min. Besides, in data set [7], the “Release of serotonin, raphe” value was 0.375 ± 0.02 nmol/g tissue, for 20 min. Moreover, the “Escape Failures (EFs)” value in data set [2] (1 mg/kg s.c.) is given as “**** .dwnarw”. In addition, in data set [2] (2.5 mg/kg s.c.), the “Condition Avoidance Reflex (CARs)” value is “**** .Arrow-up bold” and the “Intersignal Reactions (IRs)” value is listed as “* .Arrow-up bold”.
As to `CCCNC(CCC)Cc1csc2ccccc12.Cl` (stereo not shown) [compound 39, 1-(3-Benzothienyl)-2-propylaminopentane Hydrochloride], the “Release of dopamine, substantia nigra” value in data set [3] was 12.0 ± 0.34 nmol/g tissue, for 20 min. For the same compound, the “Release of dopamine, striatum” value in data set [4] is given as 7.1 ± 0.15 nmol/g tissue, for 20 min. In addition, in data set [5], the “Release of dopamine, tuberculum olfactorium” value is 10.9 ± 0.25 nmol/g tissue, for 20 min. For the same compound, the “Release of noradrenaline” value in data set [6] is given as 4.1 ± 0.15 nmol/g tissue, for 20 min. Besides, the “Release of serotonin, raphe” value in data set [7] was 0.256 ± 0.01 nmol/g tissue, for 20 min. The “Escape Failures (EFs)” value in data set [2] (1 mg/kg s.c.) was “*** .dwnarw”. Further, in data set [2] (2.5 mg/kg s.c.), the “Condition Avoidance Reflex (CARs)” value is on record as “**** .Arrow-up bold” and the “Escape Failures (EFs)” value is reported as “**** .dwnarw”.
